Read-outs that look alike come from different tables or passages of the source. Values belong to the compound of their own block, whether it stands above or below them.
Assays:
ICAM-1 = experiment: TNFα-induced ICAM-1 expression in human arterial endothelial cells (ELISA); format: cell-based
Experimental: (§1) Inhibition of TNFα-stimulated endothelial cell activation by compounds was assessed by measuring surface expression of cell adhesion molecules with an ELISA method. Human arterial endothelial cells (HAEC) in growth medium (Cell Applications Inc.) were seeded into 96-well plates at a density of 10,000 cells per well. Plates were incubated overnight at 37° C. in a humidified incubator to allow for cells to become confluent. On the morning of the experiment, TNFα (10 μl, 2 ng/ml) was added to each well, which contained 100 μl of medium. Compounds were diluted in DMSO-containing medium (2.5% DMSO) to give a compound concentration of 100 and 300 μM. Compounds were added to wells so that final concentrations were 10 and 30 μM. DMSO-containing medium alone was added to zero concentration control wells. All samples were measured in quadruplicate (4 wells per treatment).
(§2) After incubation with compound, medium was removed and cells were probed with either non-specific IgG or specific mouse antibodies against E-selectin, ICAM or VCAM (BD Biosciences—0.1 μg in 100 μL buffered saline with 10% heat-inactivated human serum). Adhesion molecule expression was detected by addition of sheep anti-mouse antibody/horseradish peroxidase conjugate. […] Optical density was measured at 405 nm with an ELISA reader (Titertek Multiscan, Flow Laboratories). […]

MM200 = experiment: Anti-cancer activity, MM200 melanoma cells (MTT); format: cell-based; details: 120 h; 5 days, MTT
cancer cell lines = experiment: Anti-cancer activity, cancer cell lines tested as a group (MTT); format: cell-based; details: read-out: IC50 against all cancer cell lines tested
[1] = system: neonatal foreskin fibroblasts (NFF); experiment: Toxicity to normal cells, neonatal foreskin fibroblasts; format: cell-based; details: Fibroblast
Experimental: IC50 values were determined for each cell line. Cells were seeded in 96-well plates at an appropriate cell density as determined from growth kinetics analysis and cultured for 5 days in the absence and presence of the test compounds. Cell proliferation was assessed after the addition of 20 μl of 3-4,5 dimethylthiazol-2,5-diphenyl tetrazolium bromide (MTT, 2.5 mg/ml in PBS, Sigma) for 3-4 hrs at 37° C. according to manufacturer's instructions. IC50 values were calculated from semi-log plots of % of control proliferation on the y-axis against log dose on the x-axis.
The neonatal foreskin fibroblasts (NFF) were a gift from Dr. Peter Parsons (Queensland Institute of Medical Research). Rabbit kidney (RK-13) cells were obtained from Miller Whalley (Macquarie University). Both cell lines were cultured in RPMI supplemented with 10% FCS(CSL, Australia), penicillin (100 U/ml), streptomycin ([…]), L-glutamine (2 mM) and sodium bicarbonate (1.2 g/L), and cultured at 37° C. in a humidified atmosphere of 5% CO2. IC50 values were determined as described above.

[2] = system: low density lipoprotein (LDL); experiment: Inhibition of Cu2+-induced oxidation of LDL (lipid peroxides, FOX assay); format: biochemical
Experimental: Blood was collected by venipuncture and plasma separated by centrifugation. LDL was then isolated from plasma using a 4-step sodium chloride density gradient and ultracentrifuged at 200,000 g for 20 hours at 4° C. The collect LDL was purified by passage through gel filtration PD10 column to remove excess salt and EDTA, and stored in the dark at 4° C. to prevent auto-oxidation and used with two weeks of isolation. The LDL cholesterol content was measure using a standard enzymatic method and protein concentration determined by the Lowry method using BSA as the standard.
[…] Oxidation reactions were initiated by the addition of freshly prepared Cu^2+ solution, such that the final concentration of CuSO4 was 5 μM. […] The extent of lipoprotein oxidation was determined by measuring the formation of lipid-peroxides on aliquots removed every 30-minute over a 3-hour period. Peroxides were determined at each time point by the ferrous oxidation-xylenol orange (FOX) assay using standard hydrogen peroxide curve (5 to 200 μM). Compounds (1) and (2) were examined in at least two separate experiments performed on separate days.

VCAM = experiment: TNFα-induced VCAM expression in human arterial endothelial cells (ELISA); format: cell-based; details: HAEC; 10 μM found most appropriate for comparing
Experimental: as §1, §2

[3] = normal, non-transformed cells, read-out: IC50 μM, NFF Fibroblast
[4] = read-out: toxicity to normal fibroblast cell line / NFFs (IC50)

IC50 (MM200): 6.1 ± 1.6 µM
IC50 (cancer cell lines): 5 to 20 µM
SMILES: Oc1ccc(C2=Cc3cc4c(cc3OC2)OCN(Cc2ccccc2)C4)cc1 [Compound 1, 4-(3-Benzyl-2,3,4,8-tetrahydrochromeno[6,7-e][1,3]oxazin-7-yl)phenol]
inhibition of ICAM expression (ICAM-1; TNFα-stimulated HAEC, 4 hrs, FIG. 18): 10-50%
IC50 [1, 3]: 15.1 µM
IC50 [1, 4]: ~15 µM

EC50 ([2]; LDL 0.1 mg/mL, CuSO4 5 μM, read-out: EC50, concentration at which 50% of the LDL oxidation was inhibited): 630 nM
IC50 (MM200): 4.76 ± 1.3 µM
IC50 (cancer cell lines): 5 to 20 µM
SMILES: CC(c1ccccc1)N1COc2cc3c(cc2C1)C=C(c1ccc(O)cc1)CO3 (stereo not drawn) [Compound 2, 4-(3-(1-Phenylethyl)-2,3,4,8-tetrahydrochromeno[6,7-e][1,3]oxazin-7-yl)phenol]
lipid peroxide formation ([2]; LDL 0.1 mg/ml + compound 0.1 μM + Cu^++ 5 μM, 0 min): 10.5 ± 2.93
lipid peroxide formation ([2]; LDL 0.1 mg/ml + compound 0.1 μM + Cu^++ 5 μM, 30 min): 13.9 ± 2.51
lipid peroxide formation ([2]; LDL 0.1 mg/ml + compound 0.1 μM + Cu^++ 5 μM, 60 min): 23.7 ± 4.71
lipid peroxide formation ([2]; LDL 0.1 mg/ml + compound 0.1 μM + Cu^++ 5 μM, 90 min): 75.1 ± 8.43
lipid peroxide formation ([2]; LDL 0.1 mg/ml + compound 0.1 μM + Cu^++ 5 μM, 120 min): 138.5 ± 2.94
lipid peroxide formation ([2]; LDL 0.1 mg/ml + compound 0.1 μM + Cu^++ 5 μM, 180 min): 173.7 ± 34.4
lipid peroxide formation ([2]; LDL 0.1 mg/ml + compound 1.0 μM + Cu^++ 5 μM, 0 min): 10.22 ± 2.9
lipid peroxide formation ([2]; LDL 0.1 mg/ml + compound 1.0 μM + Cu^++ 5 μM, 30 min): 11.62 ± 2.4
lipid peroxide formation ([2]; LDL 0.1 mg/ml + compound 1.0 μM + Cu^++ 5 μM, 60 min): 12.08 ± 3.2
lipid peroxide formation ([2]; LDL 0.1 mg/ml + compound 1.0 μM + Cu^++ 5 μM, 90 min): 18.25 ± 3.2
lipid peroxide formation ([2]; LDL 0.1 mg/ml + compound 1.0 μM + Cu^++ 5 μM, 120 min): 35.12 ± 0.4
lipid peroxide formation ([2]; LDL 0.1 mg/ml + compound 1.0 μM + Cu^++ 5 μM, 180 min): 133.1 ± 18.3
lipid peroxide formation ([2]; LDL 0.1 mg/ml + compound 10 μM + Cu^++ 5 μM, 0 min): 10.20 ± 2.6
lipid peroxide formation ([2]; LDL 0.1 mg/ml + compound 10 μM + Cu^++ 5 μM, 30 min): 15.99 ± 0.1
lipid peroxide formation ([2]; LDL 0.1 mg/ml + compound 10 μM + Cu^++ 5 μM, 60 min): 18.26 ± 0.8
lipid peroxide formation ([2]; LDL 0.1 mg/ml + compound 10 μM + Cu^++ 5 μM, 90 min): 20.64 ± 1.3
lipid peroxide formation ([2]; LDL 0.1 mg/ml + compound 10 μM + Cu^++ 5 μM, 120 min): 23.68 ± 1.2
lipid peroxide formation ([2]; LDL 0.1 mg/ml + compound 10 μM + Cu^++ 5 μM, 180 min): 24.6 ± 21.9
lipid peroxide formation ([2]; LDL 0.1 mg/ml + compound 100 μM + Cu^++ 5 μM, 0 min): 12.09 ± 2.8
lipid peroxide formation ([2]; LDL 0.1 mg/ml + compound 100 μM + Cu^++ 5 μM, 30 min): 15.93 ± 5.4
lipid peroxide formation ([2]; LDL 0.1 mg/ml + compound 100 μM + Cu^++ 5 μM, 60 min): 19.40 ± 7.8
lipid peroxide formation ([2]; LDL 0.1 mg/ml + compound 100 μM + Cu^++ 5 μM, 90 min): 23.27 ± 8.7
lipid peroxide formation ([2]; LDL 0.1 mg/ml + compound 100 μM + Cu^++ 5 μM, 120 min): 28.76 ± 5.0
lipid peroxide formation ([2]; LDL 0.1 mg/ml + compound 100 μM + Cu^++ 5 μM, 180 min): 28.6 ± 12.9
lipid peroxide formation ([2]; compound 100 μM + Cu^++ 5 μM, without LDL, 0 min): 7.69 ± 3.8
lipid peroxide formation ([2]; compound 100 μM + Cu^++ 5 μM, without LDL, 30 min): 14.97 ± 0.4
lipid peroxide formation ([2]; compound 100 μM + Cu^++ 5 μM, without LDL, 60 min): 19.19 ± 2.1
lipid peroxide formation ([2]; compound 100 μM + Cu^++ 5 μM, without LDL, 90 min): 24.30 ± 4.3
lipid peroxide formation ([2]; compound 100 μM + Cu^++ 5 μM, without LDL, 120 min): 28.31 ± 2.8
lipid peroxide formation ([2]; compound 100 μM + Cu^++ 5 μM, without LDL, 180 min): 33.20 ± 6.7
IC50 [1, 3]: 33.2 µM
IC50 [1, 4]: > 30 µM

SMILES: Oc1cccc(C2=Cc3ccc(O)cc3OC2)c1 [Compound 37-DHE, 3′,7-dihydroxy-isoflav-3-ene, reference compound]
effect on TNFα-induced VCAM expression (VCAM): less pronounced
effect on TNFα-induced ICAM-1 expression (ICAM-1; HAEC, 10 μM found most appropriate for comparing): less pronounced

Source: patent US8367659B2, “Oxazinyl isoflavonoid compounds, medicaments and use” (Marshall Edwards, Inc., priority 2007, dated 2013)
